This passage reports IC50 results from ChEMBL document CHEMBL3779772, “Synthesis of tetracyclic iminosugars fused benzo[e][1,3]thiazin-4-one and their HIV-RT inhibitory activity” (Bioorg Med Chem Lett, 2016).

For the assay, the target named is Human immunodeficiency virus type 1 reverse transcriptase (Human immunodeficiency virus 1, UniProt Q72547). The assay is described as follows: Inhibition of HIV1 reverse transcriptase using DIG-labeled dNTPs as substrate after 1 hr by ELISA. (An ELISA detects its analyte on a solid surface through an enzyme-linked reagent.)

For the compound `C[C@@H]1C(=O)N2C[C@@H](O)[C@@H](O)[C@@H]2[C@@H]2Sc3ccccc3C(=O)N12`, half-maximal inhibition (IC50) required 2.01 µM.
In the case of `C[C@H]1C(=O)N2C[C@@H](O)[C@@H](O)[C@@H]2[C@@H]2Sc3ccccc3C(=O)N12`, the IC50 (as a rule, the concentration needed to halve the response being measured) was found to be 9.65 µM.
Take `O=C1CN2C(=O)c3ccccc3S[C@@H]2[C@H]2[C@H](O)[C@H](O)CN12`: inhibition was half-maximal at 0.82 µM (IC50).
Turning to `C[C@H]1C(=O)N2C[C@@H](O)[C@@H](O)[C@@H]2[C@H]2Sc3ccccc3C(=O)N21`, the IC50 was found to be 4.21 µM.
In turn, `O=C1CN2C(=O)c3ccccc3S[C@H]2[C@H]2[C@H](O)[C@H](O)CN12` came in with an IC50 of 8.21 µM.
